In patent publication US7312196B2, “Formulations for amylin agonist peptides” (Amylin Pharmaceuticals, Inc., priority 1998, dated 2007):

Legend:
Format in all cases: physicochemical
[1] = adsorption onto glass container in liquid form
Text: However, with regard to amylin agonists or amylins which do have such a tendency when in liquid form, a surfactant should be used in their formulation. These formulations may then be lyophilized. Surfactants frequently cause denaturation of protein, both of hydrophobic disruption and by salt bridge separation. Relatively low concentrations of surfactant may exert a potent denaturing activity, because of the strong interactions between surfactant moieties and the reactive sites on proteins. However, judicious use of this interaction can stabilize proteins against interfacial or surface denaturation. Surfactants which could further stabilize the peptide may optionally be present in the range of about 0.001 to 0.3% (w/v) of the total formulation and include polysorbate 80 (i.e., polyoxyethylene(20) sorbitan monooleate), CHAPS® (i.e., 3-[(3-cholamidopropyl) dimethylammonio] 1-propanesulfonate), Brij® (e.g., Brij 35, which is (polyoxyethylene (23) lauryl ether), poloxamer, or another non-ionic surfactant.

[2] = short term mixing compatibility with insulin in the same syringe; conditions: depending on type of insulin and volume ratio
Text: The formulations reported in Tables A and B are also compatible when mixed in a syringe with commercially available insulin products. […] As outlined by Brange et al, “Insulin Structure and Stability,” in Stability and Characterization of Protein and Peptide Drugs: Case Histories, 1993, Wang et al. (Ed), Plenum Press, NY, insulin has an isoelectric precipitation zone pH range of 4.5-6.5, within 1 pH unit from isoelectric point. Therefore, while not seeking to be bound by theory, if the pH of the insulin product drops from 7.2±0.2 to pH in the isoelectric precipitation range it may cause insulin to precipitate. Thus, clarity of the solution mixture was used as a criteria for preliminary compatibility studies. The insulin volumes used in this study (Table C) cover the maximum and minimum ranges typical for Type I diabetic patients. The formulation with higher buffer capacity (Table C) forms a clear solution faster than the lower buffer capacity formulation. However, at 0.01% of the peptide label strength both formulations form a clear solution with insulin within approximately one minute. In a syringe, one minute can be considered to be instantaneous mixing. The higher label strength of the peptide (0.015% or higher) results in lower dose volume and may require longer than a minute to form a clear solution. […]

[3] = pH-rate profile: stability of the peptide at pH 4.0-5.5, 45° C.; conditions: 60 mM acetate buffer, 4.1% mannitol, 0.3% m-cresol
Protocol: This example describes two preferred liquid formulations for pramlintide. Major degradation pathways for the peptide are […] and peptide bond hydrolysis. Therefore, the stability of the peptide was investigated in the pH region of 4.0-5.5 at 45° C. […] The following formulation was developed: […]

In the case of `CC[C@H](C)[C@H](NC(=O)[C@@H]1CCCN1C(=O)CNC(=O)[C@H](Cc1ccccc1)NC(=O)[C@H](CC(N)=O)NC(=O)[C@H](CC(N)=O)NC(=O)[C@H](CO)NC(=O)[C@H](CO)NC(=O)[C@H](Cc1c[nH]cn1)NC(=O)[C@@H](NC(=O)[C@H](CC(C)C)NC(=O)[C@H](Cc1ccccc1)NC(=O)[C@H](CC(N)=O)NC(=O)[C@H](C)NC(=O)[C@H](CC(C)C)NC(=O)[C@H](CCCNC(=N)N)NC(=O)[C@H](CCC(N)=O)NC(=O)[C@@H](NC(=O)[C@H](C)NC(=O)[C@@H]1CSSC[C@H](NC(=O)[C@@H](N)CCCCN)C(=O)N[C@@H](CC(N)=O)C(=O)N[C@@H]([C@@H](C)O)C(=O)N[C@@H](C)C(=O)N[C@@H]([C@@H](C)O)C(=O)N1)[C@@H](C)O)C(C)C)C(=O)N[C@@H](CC(C)C)C(=O)N1CCC[C@H]1C(=O)N1CCC[C@H]1C(=O)N[C@H](C(=O)N[C@@H](CC(N)=O)C(=O)N[C@H](C(=O)NCC(=O)N[C@@H](CO)C(=O)N[C@@H](CC(N)=O)C(=O)N[C@H](C(=O)N[C@@H](Cc1ccc(O)cc1)C(N)=O)[C@@H](C)O)C(C)C)[C@@H](C)O` [pramlintide, ^25,28,29Pro-h-amylin], the “tendency to adsorb onto glass” value [1] is reported as “does not have a tendency to adsorb onto the glass”, the “time insulin and peptide formulation can remain in the same syringe retaining activity and stability” value [2] is reported as “at least 24 hours” and the “stability of the peptide over the pH range studied” value [3] is reported as “most stable at pH 4.0”.
